Values of other authors as cited in patent publication US7858570B2, “Compositions and methods for removing urushiol and treating the resulting skin condition” (priority 2004, dated 2010).

What was measured:
[1] = tested on: human immuno deficiency virus; conditions: in the test tube
[2] = for cloud point: 1% H2O
[3] = in vivo

Row | Molecule | cloud point [2] | other results
1 | NC(=O)NC1NC(=O)NC1=O (centres unmarked) [allantoin, glyoxyl-diureide] | – | solubility in water (at 25° C.): 0.5%; solubility (in words) (water and alcohol): soluble in water and alcohol
2 | CCCCCCCCCc1ccc(OCCOCCOCCOCCOCCOCCOCCOCCOCCO)cc1 [nonoxynol-9, nonylphenoxypolyethoxyethanol] | – | concentration in a solution that stops HIV from reproducing [1]: 0.05%
3 | nonylphenol ethoxylate [2 mol nonylphenol ethoxylate] | less than 25 °C | –
4 | nonylphenol ethoxylate [4 mol nonylphenol ethoxylate] | less than 25 °C | –
5 | nonylphenol ethoxylate [5 mol nonylphenol ethoxylate] | less than 25 °C | –
6 | nonylphenol ethoxylate [6 mol nonylphenol ethoxylate] | less than 25 °C | –
7 | nonylphenol ethoxylate [8 mol nonylphenol ethoxylate] | less than 25 °C | –
8 | nonylphenol ethoxylate [10 mol nonylphenol ethoxylate] | – | pH ([2]; 10% sol.): 6.3
9 | nonylphenol ethoxylate [12 mol nonylphenol ethoxylate] | 78-83 °C | –
10 | nonylphenol ethoxylate [14 mol nonylphenol ethoxylate] | 92-99 °C | –
11 | nonylphenol ethoxylate [30 mol nonylphenol ethoxylate] | greater than 100 °C | –
12 | nonylphenol ethoxylate [50 mol nonylphenol ethoxylate] | greater than 100 °C | –
13 | urushiol | – | time from skin exposure until rash breaks out [3]: 24 to 72 h
